Data taken from patent publication US11883526B2 (priority 2019, dated 2024).

Tested on: patients with treatment-resistant depression (TRD)
Test: Adverse events (Example 7)
Assay type: in vivo, human
Settings: for Dissociation, number of participants / Dissociative disorder, % of participants / Dissociative disorder, number of participants / Dizziness, % of participants / Dizziness, number of participants / Dysgeusia, % of participants / Dysgeusia, number of participants / Feeling abnormal, % of participants / Feeling abnormal, number of participants / Headache, % of participants / Headache, number of participants / Hypersomnia, % of participants / Hypersomnia, number of participants / Hypertension, number of participants / Hypoesthesia oral, % of participants / Hypoesthesia oral, number of participants / Insomnia, number of participants / Nasal discomfort, number of participants / Nausea, % of participants / Nausea, number of participants / Oropharyngeal pain, number of participants / Polyuria, number of participants / Sedation, % of participants / Sedation, number of participants / Throat irritation, % of participants / Throat irritation, number of participants / Total with events, % of participants / Total with events, number of participants / Tunnel vision, number of participants / Vertigo, % of participants / Vertigo, number of participants / Vision blurred, number of participants / Dissociation, % of participants / Hypertension, % of participants / Insomnia, % of participants / Nasal discomfort, % of participants / Oropharyngeal pain, % of participants / Polyuria, % of participants / Tunnel vision, % of participants / Vision blurred, % of participants: double-blind
Protocol: Adverse events were monitored throughout the study. Other safety assessments (i.e., laboratory tests, vital signs, physical examination) were performed at pre-specified time points. Vital signs, the Clinician Administered Dissociative States Scale (CADSS; Bremner, “Measurement of dissociative states with the clinician-administered dissociative states scale (CADSS)”, J. Traumatic Stress, 1998, 11(1):125-136), and the 4-item positive symptom subscale from the Brief Psychiatric Rating Scale (BPRS; Overall, “The Brief Psychiatric Rating Scale. Psychological Reports”, 1962, 10:799-812) were assessed pre-dose, at 40 minutes, and 2 hours post-dose.
Safety data were analyzed in Period 1, Period 2, double-blind, and open-label data sets, for all subjects receiving at least 1 dose of study medication.

CN[C@]1(c2ccccc2Cl)CCCCC1=O [esketamine, (S)-2-(2-chlorophenyl)-2-(methylamino)cyclohexanone]
participants with adverse events leading to discontinuation of study drug (double-blind phase): 5% | Dissociation, number of participants (28 mg): 0 | Dissociative disorder, % of participants (28 mg): (11) % | Dissociative disorder, number of participants (28 mg): 2 | Dizziness, % of participants (28 mg): (21) % | Dizziness, number of participants (28 mg): 4 | Dysgeusia, % of participants (28 mg): (11) % | Dysgeusia, number of participants (28 mg): 2 | Feeling abnormal, % of participants (28 mg): (11) % | Feeling abnormal, number of participants (28 mg): 2 | Headache, % of participants (28 mg): (32) % | Headache, number of participants (28 mg): 6 | Hypersomnia, % of participants (28 mg): (11) % | Hypersomnia, number of participants (28 mg): 2 | Hypertension, number of participants (28 mg): 0 | Hypoesthesia oral, % of participants (28 mg): (5) % | Hypoesthesia oral, number of participants (28 mg): 1 | Insomnia, number of participants (28 mg): 0 | Nasal discomfort, number of participants (28 mg): 0 | Nausea, % of participants (28 mg): (11) % | Nausea, number of participants (28 mg): 2 | Oropharyngeal pain, number of participants (28 mg): 0 | Polyuria, number of participants (28 mg): 0 | Sedation, % of participants (28 mg): (5) % | Sedation, number of participants (28 mg): 1 | Throat irritation, % of participants (28 mg): (5) % | Throat irritation, number of participants (28 mg): 1 | Total with events, % of participants (28 mg): (58) % | Total with events, number of participants (28 mg): 11 | Tunnel vision, number of participants (28 mg): 0 | Vertigo, % of participants (28 mg): (11) % | Vertigo, number of participants (28 mg): 2 | Vision blurred, number of participants (28 mg): 0 | Dissociation, % of participants (56 mg): (35) % | Dissociation, number of participants (56 mg): 7 | Dissociative disorder, % of participants (56 mg): (5) % | Dissociative disorder, number of participants (56 mg): 1 | Dizziness, % of participants (56 mg): (40) % | Dizziness, number of participants (56 mg): 8 | Dysgeusia, % of participants (56 mg): (15) % | Dysgeusia, number of participants (56 mg): 3 | Feeling abnormal, % of participants (56 mg): (5) % | Feeling abnormal, number of participants (56 mg): 1 | Headache, % of participants (56 mg): (15) % | Headache, number of participants (56 mg): 3 | Hypersomnia, number of participants (56 mg): 0 | Hypertension, % of participants (56 mg): (10) % | Hypertension, number of participants (56 mg): 2 | Hypoesthesia oral, % of participants (56 mg): (20) % | Hypoesthesia oral, number of participants (56 mg): 4 | Insomnia, % of participants (56 mg): (10) % | Insomnia, number of participants (56 mg): 2 | Nasal discomfort, % of participants (56 mg): (10) % | Nasal discomfort, number of participants (56 mg): 2 | Nausea, % of participants (56 mg): (20) % | Nausea, number of participants (56 mg): 4 | Oropharyngeal pain, % of participants (56 mg): (5) % | Oropharyngeal pain, number of participants (56 mg): 1 | Polyuria, % of participants (56 mg): (10) % | Polyuria, number of participants (56 mg): 2 | Sedation, % of participants (56 mg): (10) % | Sedation, number of participants (56 mg): 2 | Throat irritation, number of participants (56 mg): 0 | Total with events, % of participants (56 mg): (80) % | Total with events, number of participants (56 mg): 16 | Tunnel vision, number of participants (56 mg): 0 | Vertigo, % of participants (56 mg): (5) % | Vertigo, number of participants (56 mg): 1 | Vision blurred, number of participants (56 mg): 0 | Dissociation, % of participants (84 mg): (24) % | Dissociation, number of participants (84 mg): 4 | Dissociative disorder, % of participants (84 mg): (24) % | Dissociative disorder, number of participants (84 mg): 4 | Dizziness, % of participants (84 mg): (47) % | Dizziness, number of participants (84 mg): 8 | Dysgeusia, % of participants (84 mg): (29) % | Dysgeusia, number of participants (84 mg): 5 | Feeling abnormal, % of participants (84 mg): (6) % | Feeling abnormal, number of participants (84 mg): 1 | Headache, % of participants (84 mg): (18) % | Headache, number of participants (84 mg): 3 | Hypersomnia, number of participants (84 mg): 0 | Hypertension, % of participants (84 mg): (6) % | Hypertension, number of participants (84 mg): 1 | Hypoesthesia oral, % of participants (84 mg): (12) % | Hypoesthesia oral, number of participants (84 mg): 2 | Insomnia, number of participants (84 mg): 0 | Nasal discomfort, % of participants (84 mg): (6) % | Nasal discomfort, number of participants (84 mg): 1 | Nausea, % of participants (84 mg): (24) % | Nausea, number of participants (84 mg): 4 | Oropharyngeal pain, % of participants (84 mg): (12) % | Oropharyngeal pain, number of participants (84 mg): 2 | Polyuria, number of participants (84 mg): 0 | Sedation, % of participants (84 mg): (6) % | Sedation, number of participants (84 mg): 1 | Throat irritation, % of participants (84 mg): (12) % | Throat irritation, number of participants (84 mg): 2 | Total with events, % of participants (84 mg): (88) % | Total with events, number of participants (84 mg): 15 | Tunnel vision, % of participants (84 mg): (12) % | Tunnel vision, number of participants (84 mg): 2 | Vertigo, % of participants (84 mg): (6) % | Vertigo, number of participants (84 mg): 1 | Vision blurred, % of participants (84 mg): (12) % | Vision blurred, number of participants (84 mg): 2 | Dissociation, % of participants (esketamine Total): (20) % | Dissociation, number of participants (esketamine Total): 11 | Dissociative disorder, % of participants (esketamine Total): (13) % | Dissociative disorder, number of participants (esketamine Total): 7 | Dizziness, % of participants (esketamine Total): (36) % | Dizziness, number of participants (esketamine Total): 20 | Dysgeusia, % of participants (esketamine Total): (18) % | Dysgeusia, number of participants (esketamine Total): 10 | Feeling abnormal, % of participants (esketamine Total): (7) % | Feeling abnormal, number of participants (esketamine Total): 4 | Headache, % of participants (esketamine Total): (21) % | Headache, number of participants (esketamine Total): 12 | Hypersomnia, % of participants (esketamine Total): (4) % | Hypersomnia, number of participants (esketamine Total): 2 | Hypertension, % of participants (esketamine Total): (5) % | Hypertension, number of participants (esketamine Total): 3 | Hypoesthesia oral, % of participants (esketamine Total): (13) % | Hypoesthesia oral, number of participants (esketamine Total): 7 | Insomnia, % of participants (esketamine Total): (4) % | Insomnia, number of participants (esketamine Total): 2 | Nasal discomfort, % of participants (esketamine Total): (5) % | Nasal discomfort, number of participants (esketamine Total): 3 | Nausea, % of participants (esketamine Total): (18) % | Nausea, number of participants (esketamine Total): 10 | Oropharyngeal pain, % of participants (esketamine Total): (5) % | Oropharyngeal pain, number of participants (esketamine Total): 3 | Polyuria, % of participants (esketamine Total): (4) % | Polyuria, number of participants (esketamine Total): 2 | Sedation, % of participants (esketamine Total): (7) % | Sedation, number of participants (esketamine Total): 4 | Throat irritation, % of participants (esketamine Total): (5) % | Throat irritation, number of participants (esketamine Total): 3 | Total with events, % of participants (esketamine Total): (75) % | Total with events, number of participants (esketamine Total): 42 | Tunnel vision, % of participants (esketamine Total): (4) % | Tunnel vision, number of participants (esketamine Total): 2 | Vertigo, % of participants (esketamine Total): (7) % | Vertigo, number of participants (esketamine Total): 4 | Vision blurred, % of participants (esketamine Total): (4) % | Vision blurred, number of participants (esketamine Total): 2 | deaths (in vivo): No death | adverse event incidence: dizziness (open-label phase): 38.6% | adverse event incidence: dysgeusia (open-label phase): 22.8% | adverse event incidence: headache (open-label phase): 14.0% | adverse event incidence: nausea (open-label phase): 15.8% | adverse event incidence: sedation (open-label phase): 10.5% | participants reporting transient dissociative symptoms (open-label phase): 24.6% | participants with adverse events leading to discontinuation of study drug (open-label phase): 2%
